According to patent US4550186A, “Binuclear copper (II) carboxylates formed from amine-carboxyboranes” (Duke University, priority 1983, dated 1985):

Experiments:
[1] = tested on: CF1 male mice on atherogenic diet; test: Testing in atherogenic mice; format: in vivo, mouse; details: 12 days
Experimental: CF1 male mice (~25 g) were placed on a commercial diet (the U.S. Biochemical Corporation Basel Atherogenic Test Diet) which contained butterfat (400 g), celufil (cellulose; 60 g), cholesterol (53 g), choline dihydrogen citrate (4 g), salt mixture oil (Wesson; 40 g), sodium cholate (20 g), sucrose (223 g), vitamin free casein (200 g) and total vitamin supplement for 10 days. After the cholesterol and triglyceride levels were assayed and observed to be elevated, the mice were administered test drugs at 10 mg/kg/day intraperitoneally for an additional 12-day period. Serum cholesterol and triglyceride levels were measured after 12 days of administration of the drugs.

[2] = tested on: deoxyribonucleic acid synthesis of Ehrlich ascites cells; test: In vivo thymidine incorporation into deoxyribonucleic acid; parameters: species or system mouse
Experimental: (§1) CF1 male mice (~30 g) were implanted with 2×10^6 Ehrlich ascites tumor cells, intraperitoneally on Day 0. Compound I was suspended by homogenation in 0.05% polysorbate.80-water and administered intraperitoneally at 10 and 20 mg/kg for 9 days to determine its effectiveness for inhibition of tumor growth. Mice were sacrificed on Day 10, and the ascites fluid was collected from the peritoneal cavity. The volume and ascrit (packed cell volume) were determined for each animal and the percent inhibition of tumor growth was calculated. For the metabolic studies, mice were treated on Days 8 and 9 with 10 mg/kg of Compound I, intraperitoneally. The animal was sacrificed on Day 10 and the ascites fluid harvested. […]
For in vivo studies, incorporation of thymidine into deoxyribonucleic acid was determined by the method of Chae et al [Proc. Am. […] The deoxyribonucleic acid was isolated and the tritium content was determined in a toluene based scintillation fluid. The deoxyribonucleic acid concentration was determined by the diphenylamine reaction using calf thymus deoxyribonucleic acid as a standard. Uridine incorporation into ribonucleic acid was determined using 10 μCi of 5,6-^3 H-uridine (22.4 Ci/mmol). […] Leucine incorporation into protein was determined by the method of Sartorelli [Biochem. Biophys. […] Protein content was determined by the Lowry procedure using bovine serum albumin as a standard.

[3] = tested on: deoxyribonucleic acid polymerase; test: In vivo nuclear deoxyribonucleic acid polymerase activity; parameters: species or system mouse
Experimental: (§2) CF1 male mice (~30 g) were implanted with 2×10^6 Ehrlich ascites tumor cells, intraperitoneally on Day 0. Compound I was suspended by homogenation in 0.05% polysorbate.80-water and administered intraperitoneally at 10 and 20 mg/kg for 9 days to determine its effectiveness for inhibition of tumor growth. Mice were sacrificed on Day 10, and the ascites fluid was collected from the peritoneal cavity. The volume and ascrit (packed cell volume) were determined for each animal and the percent inhibition of tumor growth was calculated. For the metabolic studies, mice were treated on Days 8 and 9 with 10 mg/kg of Compound I, intraperitoneally. The animal was sacrificed on Day 10 and the ascites fluid harvested. The in vitro metabolic studies were performed at […] final concentration of Compound I.
In vitro and in vivo nuclear deoxyribonucleic acid polymerase activity was determined on isolated Ehrlich ascites cell nuclei. The incubation was that described by Sawada et al [Can. Res., 34, 3341 (1974)] except that [methyl-^3 H] deoxythymidine triphosphate (82.4 Ci/mmol) was used. The acid insoluble nucleic acid was collected on GF/F filters and counted. Nuclear ribonucleic acid polymerase activities were determined on enzymes isolated from nuclei. […] The acid insoluble ribonucleic acid was collected on nitrocellulose filters and counted.

[4] = tested on: ribonucleic acid synthesis of Ehrlich ascites cells; test: In vitro whole cell incorporation: ribonucleic acid synthesis; format: cell-based, mouse; details: preliminary, 60 min, read-out: ID50, ribonucleic acid synthesis
Experimental: as §2
In vitro incorporation of ^3 H-thymidine, ^3 H-uridine, or ^3 H-leucine was determined using 10^6 Ehrlich ascites cells, 1 μCi labeled precursor, minimum essential medium and varying final concentrations of drug from 0.25-1.0 mM. The tubes were incubated at 37° C. for 60 min and inactivated by trichloroacetic acid. The acid insoluble labeled deoxyribonucleic acid was collected on GF/F glass filter discs and ribonucleic acid and protein were precipitated on nitrocellulose filters by vacuum suction. Results are expressed as dpm of incorporated precursor per hour per 10^6 cells.

[5] = molecular target: phosphoribosyl pyrophosphate amidotransferase (Mus musculus, UniProt Q8CIH9); test: In vitro phosphoribosyl pyrophosphate amidotransferase activity; format: biochemical; details: read-out: ID50, Phosphoribosyl pyrophosphate amidotransferase activity
Chain of phosphoribosyl pyrophosphate amidotransferase (Q8CIH9 12-517): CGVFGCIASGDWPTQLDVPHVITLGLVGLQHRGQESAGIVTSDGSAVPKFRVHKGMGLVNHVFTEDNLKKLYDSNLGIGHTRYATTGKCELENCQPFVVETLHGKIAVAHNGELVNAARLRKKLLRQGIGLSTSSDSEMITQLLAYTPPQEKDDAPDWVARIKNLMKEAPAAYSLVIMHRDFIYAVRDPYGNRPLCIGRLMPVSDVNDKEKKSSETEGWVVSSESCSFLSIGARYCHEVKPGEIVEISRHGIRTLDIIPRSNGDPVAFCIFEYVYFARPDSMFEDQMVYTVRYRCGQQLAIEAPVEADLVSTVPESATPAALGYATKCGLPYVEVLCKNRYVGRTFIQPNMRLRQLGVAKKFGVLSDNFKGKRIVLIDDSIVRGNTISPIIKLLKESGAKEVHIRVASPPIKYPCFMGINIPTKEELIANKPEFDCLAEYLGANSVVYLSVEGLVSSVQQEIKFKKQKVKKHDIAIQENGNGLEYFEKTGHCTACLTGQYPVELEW
Experimental: as §1, with “intraperitoneally.” for “intraperitoneally. The animal was sacrificed on Day 10 and the ascites fluid harvested.”
Carbamyl phosphate synthetase activity was determined using the reaction medium of Kalman et al [Am. […] Citrulline formed from ornithine was measured at 490 nm by the method of Archibald [J. Biol. Chem., 156, 121 (1944)]. […] The ^14 CO2 generated in 15 min was trapped in 1M KOH and counted. Thymidylate synthetase activity was determined using a post-mitochondrial supernatant (9000 g×10 min) and 5 μCi of 5-^3 H-deoxyuridine monophosphate (14 Ci/mmol) according to the method of Kampf et al [ J. Med. Chem., 19, 903 (1976)]. ^14 C-Formate incorporation into purines was determined by the method of Spassova et al [Biochem. Pharmacol., 25, 923 (1976)] using 0.5 μCi of ^14 C-formic acid (52.0 mCi/mmol). […] The Rf value for xanthine monophosphate was scraped and counted. […]

[6] = 10 mg/kg/day I.P. on Days 8 and 9

## {Cu[(CH3)3 N.BH2 CO2 ]2.(CH3)3 N.BH2 COOH} [Compound I]
[1]; hyperlipidemic induced mice (354 mg % before)
  serum cholesterol level after drug administration: 148 mg %
[1]; hyperlipidemic induced mice, 10 mg/kg/day i.p.
  serum cholesterol levels reduced: 59%
[1]; hyperlipidemic mice, 10 mg/kg/day i.p.
  serum triglyceride levels lowered: 67%
[2]; [6]
  3H-Thymidine incorporation into deoxyribonucleic acid: 43 ± 5 % Control
[2]; 10 day Ehrlich ascites cells
  thymidine incorporation into deoxyribonucleic acid inhibited: 57%
[3]
  Nuclear deoxyribonucleic acid polymerase activity reduced: 62%
[3]; [6]
  Deoxyribonucleic acid polymerase activity: 38 ± 5 % Control
[4]
  IC50: 1820 µM
[5]
  IC50: 523 µM
